Reference: paper PMC5733122, “Purification, Characterization, and Mode of Action of Pentocin JL-1, a Novel Bacteriocin Isolated from Lactobacillus pentosus, against Drug-Resistant Staphylococcus aureus” (BioMed Research International, 2017)

Legend:
[1] = system: Enterococcus faecalis ATCC51575; assay: Agar-well diffusion test; type: cell-based
Protocol: (§1) The intestinal tracts of C. punctatum (grey carpet shark) were dissected and homogenized in 20 mL saline solution under sterile conditions and were then plated in serial dilutions in deMan, Rogosa, and Sharpe (MRS) medium. The plates were incubated aerobically at 30°C for 24 h. Several colonies were picked at random and incubated again in MRS broth. For screening for bacteriocin-producing strains, the agar-well diffusion test was used to detect antimicrobial activity in cell-free supernatants (filtered through a 0.22 μm Millipore filter) obtained by centrifugation (10,000g, 30 min, 4°C) after 18, 36, 60, and 72 h incubation. The Gram-positive strain MRSA GIM 1.771 and the Gram-negative strain Escherichia coli O157:H7 GIM 1.707 were used as indicator strains. Before the experiments, the indicator strains were grown to 10^6 CFU/mL. Then, 1 mL of the culture was mixed with 100 mL soft agar medium and poured onto individual Petri dishes. Subsequently, 8 mm diameter wells were punched onto the plates, and each well was filled with 100 μL of the cell-free supernatants under sterile conditions. The plates were incubated overnight at their respective optimum temperatures, and the clear zones of inhibition were measured in diameter and indicated the presence of antimicrobial activity. In our study, all bacteria culture media and chemical reagents were supplied by Sigma-Aldrich (USA).
(§2) The agar-well diffusion test as described previously was used to detect the antimicrobial activity of the purified pentocin JL-1 (15 μg/mL, pH 5.5). LAB strains were grown in MRS broth at 30°C for 16 h. Other Gram-positive indicator strains were grown in Tryptone Soy Broth (TSB) medium at 37°C and the Gram-negative indicator strains were grown in Luria-Bertani broth medium at 37°C.

[2] = system: Lactobacillus acidophilus ATCC314; assay: Agar-well diffusion test; type: cell-based
Protocol: as §1, §2

[3] = system: Lactobacillus casei ATCC393; assay: Agar-well diffusion test; type: cell-based; settings: purified pentocin JL-1 15 μg/mL, pH 5.5, inhibition zone diameter class incl. 8 mm well
Protocol: as §1, §2

[4] = system: Listeria monocytogenes ATCC19112; assay: Agar-well diffusion test; type: cell-based
Protocol: as §1, §2

[5] = system: Micrococcus luteus CGMCC1.2299; assay: Agar-well diffusion test; type: cell-based
Protocol: as §1, §2

[6] = system: Multidrug-resistant S. aureus 4; assay: Agar-well diffusion test; type: cell-based; settings: 15 μg/mL, pH 5.5, pork isolate resistant to FOX, TET, C, mean ± SD, triplicate
Protocol: as §1, §2

[7] = system: Multidrug-resistant S. aureus 5; assay: Agar-well diffusion test; type: cell-based; settings: 15 μg/mL, pH 5.5, pork isolate resistant to FOX, TET, GEN, C, mean ± SD, triplicate
Protocol: as §1, §2

[8] = system: Multidrug-resistant S. aureus 6; assay: Agar-well diffusion test; type: cell-based; settings: 15 μg/mL, pH 5.5, pork isolate resistant to CIP, FOX, C, SXT, TET, GEN, mean ± SD, triplicate
Protocol: as §1, §2

[9] = system: Pseudomonas aeruginosa CGMCC1.1785; assay: Agar-well diffusion test; type: cell-based
Protocol: as §1, §2

MRSA GIM1.771 = assay: Agar-well diffusion test; type: cell-based, Staphylococcus aureus; settings: pH 5.5
Protocol: as §1, §2
(§3) The residual antibacterial activities of the above samples were calculated using the agar-well diffusion test with MRSA GIM 1.771 as the indicator strain. […] Lyophilized pentocin JL-1 dissolved in 0.05% (w/v) acetic acid at 15 μg/mL with pH 5.5 was used as a control in all assays.

MRSA GIM 1.771 [10] = assay: Minimal inhibitory concentration (MIC), 96-well microtiter plates; type: cell-based, Staphylococcus aureus; settings: around 2 × 10^6 CFU/mL, 37°C, 24 h, 100% growth inhibition by absorbance at 540 nm, triplicate
Protocol: Additionally, the minimal inhibitory concentration (MIC) of pentocin JL-1 against MRSA GIM 1.771 was tested. Overnight culture of MRSA GIM 1.771 with the concentration of around 2 × 10^6 CFU/mL was collected and 50 μL of each was grown in 96 well-microtiter plates (Bio-Rad, USA) with different concentrations of pentocin JL-1, ranging from 50 ng/mL to 15 μg/mL, at 37°C for 24 h. Each concentration was done in triplicate. The MIC represents the bacteriocin concentration at which 100% of growth is inhibited measured by the absorbance at 540 nm.

[11] = Thermal sensitivity, residual antibacterial activity; type: physicochemical; settings: for Residual inhibitory activity (inhibition zone diameter, mm): 15 μg/mL in 0.05% (w/v) acetic acid, agar-well diffusion vs MRSA GIM 1.771, mean ± SD, triplicate; for Residual inhibitory activity (%): 15 μg/mL in 0.05% acetic acid, vs MRSA GIM 1.771, relative to control
Protocol: To determine thermal sensitivity, lyophilized purified pentocin JL-1 dissolved in 0.05% (w/v) acetic acid at 15 μg/mL was evaluated at different temperatures (−20°C, 4°C, 30°C, 60°C, and 100°C) for 1 h and also at the autoclaved condition (121°C at 15 psi for 15 min).
as §3

MRSA GIM 1.771 [12] = assay: Time-killing kinetics, viable cell counts; type: cell-based, Staphylococcus aureus; settings: for instantaneous killing action, log10 reduction: at 0 h, viable cell counts on TSB agar, exponential-phase culture, 37°C
Protocol: (§4) The bacteriostatic or bactericidal mode of action of pentocin JL-1 was tested as described previously by Zhu et al. with some modifications. MRSA GIM 1.771 was cultivated to the exponential phase in 100 mL of TSB culture medium. The lyophilized purified pentocin JL-1 dissolved in 0.05% (w/v) acetic acid was added to the cultures at a final concentration of 1x MIC and the same volume of 0.05% (w/v) acetic acid was added to the aforementioned media as a control. Samples were incubated at 37°C and bacterial suspensions were taken each hour for 24 h, and the absorbance was measured at OD600. In addition, the viable cell counts on TSB agar medium after the addition of 1x MIC, 2x MIC, and 3x MIC of pentocin JL-1 were also quantified every 10 min for 1 h.

MRSA GIM 1.771 [13] = assay: Growth curve, OD600; type: cell-based, Staphylococcus aureus; settings: 1x MIC added after 6 h (exponential phase), TSB, 37°C, 24 h
Protocol: as §4

[14] = purified pentocin JL-1 15 μg/mL, pH 5.5, inhibition zone diameter class incl. 8 mm well
[15] = 121°C, 15 min (autoclaved, 15 psi)

VAKVAR [pentocin JL-1, novel bacteriocin produced by Lactobacillus pentosus JL-1, purified by four-step chromatography, molecular mass 2987.23 Da, cationic and hydrophobic peptide]
inhibitory activity ([1]; 15 μg/mL, pH 5.5): inhibited | Antimicrobial activity [1, 14]: ++ (++: 15–19) | inhibitory activity ([2]; 15 μg/mL, pH 5.5): no inhibitory activity | Antimicrobial activity [2, 14]: − | Antimicrobial activity [3]: +++ (+++: 20–25) | inhibitory activity ([4]; 15 μg/mL, pH 5.5): inhibited | Antimicrobial activity [4, 14]: ++ (++: 15–19) | inhibitory activity ([5]; 15 μg/mL, pH 5.5): inhibited | Antimicrobial activity [5, 14]: ++ (++: 15–19) | Inhibitor zone [6]: 22.4 ± 0.6 mm | Inhibitor zone [7]: 23.9 ± 1.5 mm | Inhibitor zone [8]: 23.7 ± 0.6 mm | inhibitory activity ([9]; 15 μg/mL, pH 5.5): inhibited | Antimicrobial activity [9, 14]: + (+: 10–14) | Residual inhibitory activity (%) (MRSA GIM1.771; Control: untreated pentocin JL-1 15 μg/mL in 0.05% (w/v) acetic acid): 100.00% | Residual inhibitory activity (inhibition zone diameter, mm) (MRSA GIM1.771; Control: untreated pentocin JL-1 15 μg/mL in 0.05% (w/v) acetic acid, mean ± SD, triplicate): 23.9 ± 0.7 mm | Antimicrobial activity (MRSA GIM1.771; agar-well diffusion, purified pentocin JL-1 15 μg/mL, inhibition zone diameter class incl. 8 mm well): +++ (+++: 20–25) | MIC (MRSA GIM 1.771 [10]): 7.5 µg/mL | Residual inhibitory activity (inhibition zone diameter, mm) ([11]; 4°C, 1 h): 23.8 ± 1.2 mm | Residual inhibitory activity (%) ([11]; 4°C, 1 h): 99.58% | Residual inhibitory activity (inhibition zone diameter, mm) ([11]; 30°C, 1 h): 23.9 ± 0.2 mm | Residual inhibitory activity (%) ([11]; 30°C, 1 h): 100.00% | Residual inhibitory activity (inhibition zone diameter, mm) ([11]; 60°C, 1 h): 23.6 ± 0.8 mm | Residual inhibitory activity (%) ([11]; 60°C, 1 h): 98.74% | Residual inhibitory activity (inhibition zone diameter, mm) ([11]; 100°C, 1 h): 22.6 ± 0.8 mm | Residual inhibitory activity (inhibition zone diameter, mm) [11, 15]: 20.1 ± 0.9 mm | Residual inhibitory activity (%) [11, 15]: 84.10^∗ % | Residual inhibitory activity (inhibition zone diameter, mm) ([11]; −20°C, 1 h): 22.2 ± 1.0 mm | instantaneous killing action, log10 reduction (MRSA GIM 1.771 [12]; 1x MIC): 1.05 log10 | mode of action (bacteriostatic or bactericidal) (MRSA GIM 1.771 [12]; 1x, 2x, 3x MIC, viable counts over 1 h): bactericidal | instantaneous killing action, log10 reduction (MRSA GIM 1.771 [12]; 2x MIC): 2.14 log10 | instantaneous killing action, log10 reduction (MRSA GIM 1.771 [12]; 3x MIC): 2.21 log10 | OD600 values after addition (MRSA GIM 1.771 [13]): nearly stable
